Reference: patent US6765104B1, “Transition metal complexes of n, n',n″trialkyl-cis-1,3,5-triaminocyclohexane and related compositions and methods of synthesis and use” (The United States of America as represented by the …, priority 1999, dated 2004)
Blank lines part the entries; values can stand above or below the compound they belong to.

Experiments:
[1] = Hydrolysis of bis(p-nitrophenyl)phosphate, initial rate of 4-nitrophenolate formation at 400 nm; type: biochemical
Description: The copper (II) complex of N,N′,N″-trimethyl-cis,cis-1,3,5-triaminocyclohexane prepared in accordance with the method of Example 2 (1 mM) was combined with bis(4-nitrophenyl)phosphate (1 mM) and HEPES (50 mM), pH 7.24, at 50° C. and incubated, while monitoring for an increase in absorbance at 400 nm. An aliquot was withdrawn and analyzed by reverse phase HPLC, eluted with a linear gradient of 100% 50 mM acetic acid/50 mM triethylamine to 100% methanol over thirty minutes. The signals observed in the reaction mixture corresponded to the predicted hydrolytic products, p-nitrophenyl phosphate (10.5 min) and 4-nitrophenolate (16.8 min), as well as unreacted bis(p-nitrophenyl)phosphate (20.2 min). Products were confirmed by co-injection of standards.
(§1) Measurements were performed as previously described (Deal et al. (Inorg. Chem. 1996), supra). Briefly, the initial rate of formation of 4-nitrophenolate was monitored spectrophotometrically at 400 nm for 1 hr or for less than 10% conversion of bis(p-nitrophenyl)phosphate to products. Reactions were run in sets of four, triplicate reaction mixtures and one reference. Spontaneous hydrolysis of the phosphate diester was corrected in the reference, which was identical to the reaction mixture, except lacking metal complex. The concentration of 4-nitrophenolate was calculated from the absorbance using an extinction coefficient of 18700 L mol^−1 cm^−1. The initial rate was obtained from the slope of the plots of 4-nitrophenolate concentration vs. time.

[2] = Hydrolysis of ethyl (p-nitrophenyl)phosphate; type: biochemical
Description: as §1
Bis(p-nitrophenyl)phosphate was hydrolyzed more rapidly than ethyl (p-nitrophenyl)phosphate, which was hydrolyzed more rapidly than p-nitrophenyl phosphate. Thus, the rate of metal-promoted hydrolysis is dependent on the electron-withdrawing ability of the leaving group. Leaving groups which are strongly electron-withdrawing are considered activated and hydrolyze more rapidly. […]

[3] = test system: Chinese hamster V79 cells; assay: Cytotoxicity by macroscopic colony formation, surviving fraction of V79 cells; type: cell-based; conditions: for treated cells that survive: concentration of 3 mM, FIG. 1
Description: Chinese hamster V79 cells were maintained in a 5% CO2/95% air humidified atmosphere at 37° C. in nutrient mixture F12 with 10% heat-inactivated fetal bovine serum and antibiotics. One day before each experiment, 5×10^5 V79 cells were plated into 100 mm petri dishes and incubated overnight The cells were exposed to the copper complex of N,N′,N″-triethyl-cis,cis-1,3,5-triaminocyclohexane or N,N,N″-triethyl-cis,cis-1,3,5-triaminocyclohexane or the corresponding ligand of N,N′,N″-triethyl-cis,cis-1,3,5-triaminocyclohexane or N,N′,N″-triethyl-cis,cis-1,3,5-triaminocyclohexane alone for 1 or 24 hours, after which they were rinsed, trypsinized, and plated for macroscopic colony formation. After incubating for 7 days, colonies were fixed with methanol/acetic acid and stained with crystal violet. Colonies larger than 50 cells were counted.

[4] = test system: hypoxic MCF-7 human mammary carcinoma cells; assay: Cytotoxicity to hypoxic MCF-7 cells, surviving fraction; type: cell-based; conditions: 1500 μM, 1 hour, FIG. 3
Description: (§2) MCF-7 human mammary carcinoma cells were maintained in a 5% CO2/95% air humidified atmosphere at 37° C. in RPMI 1640 with 10% heat-inactivated fetal bovine serum and antibiotics. For hypoxia experiments, 3×10^5 MCF-7 cells were plated into glass flasks, and incubated overnight The flasks were sealed with a rubber stopper, and two hypodermic needles were inserted to allow for gassing. Flasks were gassed with a 95% nitrogen/5% carbon dioxide mixture for one hour. The copper complex was added to the cells after they were hypoxic through a glass sidearm connected to the flask by a ground glass connection. Cells were incubated for 1 hour for experiments to assess the toxicity of the copper complex, then plated and incubated as described previously in Example 4.

[5] = test system: hypoxic MCF-7 human mammary carcinoma cells; assay: Hypoxic irradiation with the copper complex, surviving fraction of MCF-7 cells; type: cell-based; conditions: 15 minutes with complex, then irradiated, FIG. 4
Description: as §2, with “4. For hypoxic irradiation experiments, cells were incubated with the copper complex for 15 minutes, then irradiated, plated and incubated as described previously in Example 4. Cells were irradiated with an Eldorado 8 Cobalt-60 teletherapy machine (Theratronics International Ltd., Kanata, Ontario, Canada). The dose rate varied form 200 to 150 cGy/min during the course of this study. Decay corrections were done monthly, and full electron equilibrium was ensured for all irradiations.” for “4.”

[6] = Deal et al. (Inorg. Chem. 1996); cited from earlier work

pKa from plot of log initial rate versus pH (Dixon method) ([1]; consistent with deprotonation of a copper(II) coordinated water molecule): 7.3 | Km ([1]; modified Lineweaver-Burke function, read-out: Michaelis Constant (Km)): 4.4 mM
Compound: copper complex of N,N′,N″-trimethyl-cis,cis-1,3,5-triaminocyclohexane
rate of phosphate diester hydrolysis relative to the copper (II) triazacyclononane system [1]: approximately 6.5 times faster | maximal velocity (Vmax) ([1]; modified Lineweaver-Burke function): 9.3e-08 s⁻¹ | rate acceleration compared to the copper (II) triazacyclononane system [2]: 6.7 | concentration producing approximately the same effect, cells treated for 1 hr ([3]; 1 hr, FIG. 2): 4000 µM | concentration producing approximately the same effect, cells treated for 24 hrs ([3]; 24 hrs, FIG. 2): 1000 µM | treated cells that survive [3]: 3% | treated hypoxic cells destroyed [4]: approximately 99% | radiation alone needed for the same effect as radiation plus the copper complex [5]: Approximately twice

Compound: O=P(O)(O)OP(=O)(O)O [pyrophosphate, reference compound]
inhibition of the hydrolysis reaction ([1]; 0.5 equivalents relative to the copper complex): completely inhibited

Compound: copper complex of N,N′,N″-triethyl-cis,cis-1,3,5-triaminocyclohexane
treated cells that survive [3]: 15%

Compound: copper (II) triazacyclononane [copper (II) triazacyclononane system]
rate of phosphate diester hydrolysis [6]: 1.3e-06 s⁻¹
